Data published in PMC12650265 (The Journal of Experimental Medicine, 2025).

Legend:
MAIT cells from PBMCs = experiment: primary MAIT cell activation in PBMCs (CD69, TNF); assay type: cell-based, human; conditions: 16-h incubation
[1] = tested on: CD3^+ MR1-5-OP-RU tetramer^+ MAIT cells; experiment: MAIT cell proliferation in CTV-labeled PBMCs; assay type: cell-based, human; conditions: 7-day culture, 5-OP-RU 10 µM, others 100 µM
soluble WT MR1 = experiment: fluorescence-based thermal shift (thermostability) assay of MR1–ligand complexes; assay type: binding, human; conditions: MR1 refolded with the ligand, SYPRO Orange, 28 to 95°C, three independent experiments
[2] = tested on: T1, folded MR1 in C1R.MR1 cells; experiment: intracellular total folded MR1 by flow cytometry (8F2.F9); assay type: cell-based, human; conditions: 16 h, 100 µM
T1 construct: expressed in transfected cells; host or cells: C1R B lymphoblastoid cells transduced with MR1*01

[3] = tested on: T2, MR1^R9H on C1R.MR1^R9H cells; experiment: cell surface MR1^R9H by flow cytometry; assay type: cell-based, human
T2 construct: expressed in transfected cells; host or cells: C1R cells stably transduced with MR1^R9H
Description: (§1) We then tested the effect of the RF catabolites on the expression of two mutant versions of MR1 termed MR1^R9H ([Howson et al., 2020]) and MR1^K43A ([Reantragoon et al., 2013]). First, we tested the MR1^R9H mutant ([Howson et al., 2020]), which represents a rare, natural human polymorph. […] We used C1R.MR1^R9H cells, which are produced by stable transduction of wild-type C1R cells, which express low levels of wild-type MR1, with a vector expressing the MR1^R9H mutant ([Howson et al., 2020]). […] When C1R. […] Next, we sought to understand how the previously characterized K43A mutation affects ligand binding.
The level of MR1 expressed on the cell surface was measured after the exposure to the investigated ligands as previously described ([Awad et al., 2020a]; [Wang et al., 2022a]). C1R Ag-presenting B lymphocytes overexpressing MR1*01 (C1R.MR1), MR1^K43A mutant (C1R.MR1^K43A), MR1^R9H mutant (C1R.MR1^R9H), or HLA-A*02:01 (C1R-A2), in addition to the monocytic THP-1-MR1 cells, were used in this study. […] The PE fluorescence intensity reflects the surface MR1 level. The data were acquired with LSRFortessa X-20 (BD Biosciences) and Diva software (BD Biosciences) and analyzed using FlowJo software (BD Biosciences).

MR1 in C1R.MR1 cells = tested on: T3, MR1 in C1R.MR1 cells; experiment: Endo H treatment and western blot of intracellular MR1; assay type: cell-based, human; conditions: 16 h, Ac-6-FP 10 μM, RF and catabolites 100 μM
T3 construct: expressed in transfected cells; host or cells: C1R B lymphoblastoid cells transduced with MR1*01
Method: The downregulation of MR1 on the cell surface by the RF catabolites could be due to the depletion of the intracellular ER-resident MR1 pool, or due to the retention of MR1 in the ER, as shown for the DB28 ligand ([Salio et al., 2020]). To investigate this, C1R.MR1 cells were treated for 16 h with 100 µM RF or RF catabolites, conditions that induce MR1 downregulation (Fig. 3 A). Cells were lysed, and treated with endoglycosidase (Endo) H, to distinguish molecules that remain within the ER from those that have trafficked to the cell surface ([McWilliam et al., 2016]), and then, MR1 levels were assessed by immunoblotting (Fig. 3 A).
C1R.MR1 cells were cultured with different RF catabolites for 16 h, at 37°C. Samples were then treated with or without Endo H for 1-h incubation at 37°C. Cells were lysed, and lysate protein concentration was quantified by BCA assay. Equal amounts of samples (40 µg total protein) were separated on SDS-PAGE gels before being transferred onto nitrocellulose membranes and incubated with primary (anti-MR1; clone 8G3) ([McWilliam et al., 2020]) then corresponding secondary antibody (IRDye 800CW anti-mouse IgG, Cat. No. 925-32210; LICORbio). The protein bands were visualized by the Li-Cor system.

[4] = tested on: T4, human MR1–β2-microglobulin (β2m) complex; experiment: refolding of recombinant MR1-β2m with ligand; assay type: binding; conditions: ligand added to refolding buffer; gel filtration and SDS-PAGE
T4 construct: plasmids encoding for the extracellular domains of MR1, β2m, and the AF-7 TCRα and TCRβ chains; made in house

[5] = tested on: T5, MR1 on PBMC-derived B lymphocytes; experiment: MR1 surface expression on primary B cells; assay type: cell-based; conditions: primary human B cells, 16 h, highest doses, with or without 5-OP-RU
T5 construct: we also measured MR1 on the surface of cells expressing wild-type levels of MR1; endogenous in cells; host or cells: PBMC-derived B lymphocytes from healthy human donors

[6] = tested on: T6, MR1^K43A on C1R.MR1^K43A cells; experiment: cell surface MR1^K43A by flow cytometry; assay type: cell-based, human; conditions: 3 h
T6 construct: expressed in transfected cells; host or cells: C1R cells overexpressing MR1^K43A
Description: as §1
The level of MR1 expressed on the cell surface was measured after the exposure to the investigated ligands as previously described ([Awad et al., 2020a]; [Wang et al., 2022a]). C1R Ag-presenting B lymphocytes overexpressing MR1*01 (C1R.MR1), MR1^K43A mutant (C1R.MR1^K43A), MR1^R9H mutant (C1R.MR1^R9H), or HLA-A*02:01 (C1R-A2), in addition to the monocytic THP-1-MR1 cells, were used in this study. 2 × 10^5 cells were incubated with RF catabolites for 3 or 16 h at 37°C and 5% CO2 in 200 μl folate-free RPMI 1640 medium from Gibco (Cat. No. 11875-093) fortified with 10% fetal bovine serum, sodium pyruvate (1 mmol/L), HEPES buffer (15 mmol/L), pH 7.2–7.5, 2% penicillin (100 U/ml), streptomycin ([…]), GlutaMAX (2 mmol/L), nonessential amino acids (0.1 mmol/L) (all from Thermo Fisher Scientific, Life Technologies), and 2-mercaptoethanol ([…], Sigma-Aldrich) (RF-10). After incubation, the cells were first stained with Zombie Aqua Fixable Viability Kit from BioLegend (Cat. No. 423102) and then incubated with biotinylated 8F2F9 αMR1 antibody for 30 min on ice. The unbound antibody was then washed off with 2% fetal bovine serum/PBS (called 2% FACS hereafter) buffer. The cells were finally incubated with PE-conjugated streptavidin (30 μg/ml; BioLegend) and then washed with 2% FACS buffer. The PE fluorescence intensity reflects the surface MR1 level. The data were acquired with LSRFortessa X-20 (BD Biosciences) and Diva software (BD Biosciences) and analyzed using FlowJo software (BD Biosciences).

SKW-3-MAV36 line = experiment: SKW-3 reporter T cell activation (CD69), coculture with C1R.MR1; assay type: cell-based; conditions: SKW-3-MAV36, in the presence of 5-OP-RU
Method: (§2) Given the intracellular MR1 retention induced by the RF catabolites, we anticipated that these ligands could influence the activity of MR1-reactive T cells. First, we utilized a system whereby reporter SKW-3 T cell lines were cocultured with C1R.MR1 APCs and activation was determined by CD69 expression. […] In contrast, SKW-3-MBV28 cells were inhibited by alloxazine but activated by lumichrome (Fig. S3, D–F). Two MR1-restricted TRAV1-2^−ve SKW-3 T cell lines were also tested.
(§3) C1R.MR1 cells (1 × 10^5) were initially stained with CTV (Thermo Fisher Scientific) for 15 min and then incubated with RF catabolites for 20 h. […] Cells were subsequently stained with PE-Cy7-conjugated anti-CD69 (1:100; BD Biosciences) and PE-labeled anti-MR1 (1:100, clone 26.5; BD Biosciences), before analysis on a LSRFortessa (BD Biosciences) flow cytometer. Activation of the SKW-3 cells was reflected by the cell surface CD69 expression.

SKW-3-DGB129 line = experiment: as above; assay type: cell-based; conditions: SKW-3-DGB129 cocultured with C1R.MR1
Method: as §2, §3

[7] = tested on: SKW-3 cells expressing MAIT TCR MBV28; experiment: as above; assay type: cell-based; conditions: SKW-3-MBV28, in the presence of 5-OP-RU
Method: as §2, §3

[8] = tested on: SKW-3 cells expressing MAIT TCR AF-7; experiment: as above; assay type: cell-based; conditions: for reactivity to 5-OP-RU (CD69): SKW-3-AF-7, in the presence of 1 nM 5-OP-RU; for reactivity to RL-7-Me (CD69): SKW-3-AF-7, in the presence of 100 nM RL-7-Me
Method: as §2, §3

[9] = tested on: T7, surface MR1*01 on C1R.MR1 cells; experiment: quantification of cell surface MR1 by flow cytometry, C1R.MR1 cells; assay type: cell-based, human; conditions: C1R.MR1 cells, 3 h, 1–200 µM, 8F2F9 antibody
T7 construct: expressed in transfected cells; host or cells: C1R B lymphoblastoid cells transduced with MR1*01

hMR1 protein = molecular target: T8, hMR1 protein (Homo sapiens, UniProt Q95460); experiment: fluorescence polarization–based cell-free assay, competition with JYM20 for MR1 binding; conditions: 50% inhibition of 10 nM JYM20 binding to 100 nM empty hMR1, 37°C; three independent experiments in triplicate
T8 construct: plasmids encoding for the extracellular domains of MR1, β2m, and the AF-7 TCRα and TCRβ chains; made in house; host or cells: Escherichia coli BL21(DE3)

[10] = tested on: T9, surface MR1*01 on THP-1.MR1 cells; experiment: quantification of cell surface MR1 by flow cytometry, THP-1.MR1 cells; assay type: cell-based, human; conditions: 3 h
T9 construct: expressed in transfected cells; host or cells: THP-1 monocytic cells transduced with MR1
Method: Next, we investigated whether these RF catabolites can impact MR1 cell surface expression in both MR1-transduced B cell lymphoblastoid (C1R.MR1) and monocytic (THP-1.MR1) cell lines (Fig. 2). Here, the cells were incubated with 1–200 µM of RF or the RF catabolites, and the cell surface levels of MR1 were quantified by flow cytometry ([Awad et al., 2020a]; [Keller et al., 2017]). […] The MR1 downregulation seen in C1R.MR1 cells was specific to MR1 as the level of HLA-A*02:01 was not affected after incubating C1R-A2 with the ligands (Fig. S1 E). […] This MR1 downregulation varied between cell types, with a higher extent observed in THP-1.MR1 than C1R.MR1, and was seen after staining with two different conformational anti-MR1 antibodies (clones 8F2F9 and 26.5; Fig. 2 G). Beyond APCs overexpressing MR1, we also measured MR1 on the surface of cells expressing wild-type levels of MR1.
The level of MR1 expressed on the cell surface was measured after the exposure to the investigated ligands as previously described ([Awad et al., 2020a]; [Wang et al., 2022a]). […] The PE fluorescence intensity reflects the surface MR1 level. The data were acquired with LSRFortessa X-20 (BD Biosciences) and Diva software (BD Biosciences) and analyzed using FlowJo software (BD Biosciences).

T8 sequence (Q95460 23-302 limits assumed): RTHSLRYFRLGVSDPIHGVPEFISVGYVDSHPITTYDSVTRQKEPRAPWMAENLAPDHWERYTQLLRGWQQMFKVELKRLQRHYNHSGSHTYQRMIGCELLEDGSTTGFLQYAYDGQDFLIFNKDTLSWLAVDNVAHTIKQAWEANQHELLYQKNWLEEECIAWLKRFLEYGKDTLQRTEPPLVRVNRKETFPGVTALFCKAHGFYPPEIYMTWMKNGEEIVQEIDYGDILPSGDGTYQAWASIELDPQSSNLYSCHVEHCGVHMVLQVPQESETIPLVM
T8 sequence (P61769 21-119 partner): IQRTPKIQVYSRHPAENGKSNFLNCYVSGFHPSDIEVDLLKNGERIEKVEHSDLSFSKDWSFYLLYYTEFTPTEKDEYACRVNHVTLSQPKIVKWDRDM

SMILES	Tm50 (half-maximum melting temperature), Mean ± SD (soluble WT MR1) [°C]	total level of folded MR1 (intracellular staining with 8F2.F9) [2]	folding of the MR1-β2m cocomplex in solution [4]	MR1 surface expression [5]	MR1^K43A at the cell surface [6]	reactivity to 5-OP-RU (CD69) [8]	reactivity to RL-7-Me (CD69) [8]	IC50 (hMR1 protein) [µM]	other results
CC(=O)C=Nc1c(NCC(O)C(O)C(O)CO)[nH]c(=O)[nH]c1=O [5-OP-RU, 5-(2-oxopropylideneamino)-6-D-ribitylaminouracil, reference compound]	58.14 ± 0.60								CD69 upregulation on MAIT cells, ligand alone (MAIT cells from PBMCs): induced robust CD69 upregulation; MAIT cell proliferation [1]: significantly proliferated
CC(=O)Nc1nc2ncc(C=O)nc2c(=O)[nH]1 [Ac-6-FP, acetyl-6-FP, reference compound]	64.22 ± 0.27	significantly increased total folded MR1							MR1^R9H surface level [3]: significantly increased; Endo H–resistant MR1 (MR1 in C1R.MR1 cells): increase in MR1 of a higher molecular weight, in line with Endo H resistance
O=c1nc2[nH]c3ccccc3nc-2c(=O)[nH]1 [Alloxazine, alloxazine]		increased the total level of folded MR1	facilitated the correct folding of the MR1-β2m cocomplex	reduced MR1 surface expression	increased MR1^K43A at the cell surface	not altered	inhibited in a dose-dependent manner	13.4	Tm50 (half-maximum melting temperature), Mean ± SD (soluble WT MR1; listed as MR1-Alloxazine): 50.73 ± 0.45 °C; reactivity to 5-OP-RU (CD69) (SKW-3-MAV36 line): inhibited; reactivity of MR1 autoreactive, nucleobase-adduct reactive line (CD69) (SKW-3-DGB129 line): inhibited; reactivity to 5-OP-RU (CD69) [7]: inhibited; MR1 cell surface expression [9]: reduced MR1 cell surface
Cc1cc2nc3c(=O)[nH]c(=O)nc-3n(CC=O)c2cc1C [FMF, 10-formylmethylflavin]		increased the total level of folded MR1	facilitated the correct folding of the MR1-β2m cocomplex					53.6	
Cc1cc2nc3c(=O)[nH]c(=O)nc-3n(C)c2cc1C [Lumiflavin, lumiflavin]			facilitated the correct folding of the MR1-β2m cocomplex	reduced MR1 surface expression	increased MR1^K43A at the cell surface	enhanced activation	activation was enhanced	22.8	Tm50 (half-maximum melting temperature), Mean ± SD (soluble WT MR1; listed as MR1-Lumiflavin): 52.02 ± 0.58 °C; MR1 cell surface expression [10]: downregulated MR1 after 3 h
